According to patent publication US10851065B2 (Eisai R&D Management Co., Ltd., priority 2015, dated 2020):

Assays:
[1] = tested on: MCF7-WT cells (MCF7 ER-alpha wildtype); assay: In vitro proliferation (viability) assay, CellTiter-Glo, MCF7-WT cells; format: cell-based; conditions: Homo sapiens; MCF7-WT cells, 6 days, CTG vs day 0; mean ± SD-type spread (n); read-out: GI50 WT
Experimental: (§1) MCF7 BUS cells (Coser, et al., (2003) PNAS 100(24): 13994-13999) were maintained in Dulbecco's Modified Eagle Medium supplemented with 10% FBS, 4 mM L-glutamine and 1× non-essential amino acids. Lenti-X 293T cells (Clontech, Cat #632180) were routinely cultured in Dulbecco's Modified Eagle Medium supplemented with 10% FBS.
(§2) The QuikChange II XL Site-Directed Mutagenesis Kit (Agilent Technologies, Cat #200523) was used to generate Y537S, Y537C, Y537N and D538G mutations within the ERα exon 8. Wild-type ESR1 cDNA (GeneCopoeia Inc., Cat #GC-A0322, accession no. NM 000125) was used as a template with the following mutagenesis primers (where the underlined nucleotides represent site mutations); Y537S: F-AAGAACGTGGTGCCCCTCTCTGACCTGCTGCTGGAGATG (SEQ ID NO: 1), R-CATCTCCAGCAGCAGGTCAGAGAGGGGCACCACGTTCTT (SEQ ID NO: 2); Y537N: F-AAGAACGTGGTGCCCCTCAATGACCTGCTGCTGGAGATG (SEQ ID NO: 3), R-CATCTCCAGCAGCAGGTCATTGAGGGGCACCACGTTCTT (SEQ ID NO: 4); Y537C: F-AAGAACGTGGTGCCCCTCTGTGACCTGCTGCTGGAGATG (SEQ ID NO: 5), R-CATCTCCAGCAGCAGGTCACAGAGGGGCACCACGTTCTT (SEQ ID NO: 6); D538G: F-AACGTGGTGCCCCTCTATGGCCTGCTGCTGGAGATGCTG (SEQ ID NO: 7), R-CAGCATCTCCAGCAGCAGGCCATAGAGGGGCACCACGTT (SEQ ID NO: 8). WT and mutant ESR1 cDNAs were cloned into the designation lentiviral vector pLenti6.3/V5-Dest (Invitrogen, Cat #V533-06). To make lentivirus, DNAs (WT and mutant ESR1) were co-transfected with packaging plasmids into Lenti-X 293T cells using TransIT (Mirus, Cat #MIR 2700). 48 h post-transfection, virus containing media was filtered and added to MCF7 cells in the presence of 8 µg/ml polybrene overnight. Two days following infection, cells were placed under selection with 10 μg/ml blasticidin for 2 weeks for stable expression.
(§3) MCF7-WT and -Y537S cells were seeded at 1500 cells/well in black-walled 96-well plates (assay plates, Costar, Cat #3904). In parallel, cells were also seeded in a separate 96-well plate (8 wells/cell line, control plate) for which a CTG (CellTiter-Glo® Luminescent Viability Assay, Promega, Cat #G7572) was measured the following day (day 0 reading). The day 0 reading was used for the GI50 calculation at the termination of the experiment. The day following seeding, compounds were added to assay plates. Briefly, a 1:4 serial dilution was prepared in DMSO at 200× final concentration for a total of 10 concentrations (9 dilutions containing compound and one is DMSO only). Serially diluted compounds were pipetted into medium to prepare a compound-medium mix at 10× final concentration. 10 μl of compound-medium mix was added to MCF7-WT and -Y537S cells at 3 wells/concentration (triplicate for each concentration). On day 3, media/compound was removed and replaced with fresh media/compound as described above. On day 6, CTG was measured and compared to day 0 readings from control plate to assess GI50.

[2] = tested on: MCF7-Y537S cells (MCF7 ER-alpha Y537S mutant); assay: In vitro proliferation (viability) assay, CellTiter-Glo, MCF7-Y537S cells; format: cell-based; conditions: Homo sapiens; MCF7-Y537S cells, 6 days, CTG vs day 0; mean ± SD-type spread (n); read-out: GI50 MUT (Y537S)
Experimental: as §1, §2, §3

GI50 [1]	GI50 [2]	Compound
2.08 ± 1.57 nM	20 ± 13.7 nM	CN(C)C(=O)/C=C/CNCCOc1ccc(/C(=C(\c2ccccc2)C2CCC2)c2ccc3[nH]ncc3c2)cc1 [Compound 13, (E)-4-((2-(4-((E)-2-cyclobutyl-1-(1H-indazol-5-yl)-2-phenylvinyl)phenoxy)ethyl)amino)-N,N-dimethylbut-2-enamide]
2.46 ± 1.43 nM	30.7 ± 4.02 nM	CN(C)C(=O)/C=C/CNCCOc1ccc(/C(=C(\c2ccccc2)C2CCC2)c2ccc3[nH]nc(F)c3c2)cc1 [Compound 14, (E)-4-((2-(4-((E)-2-cyclobutyl-1-(3-fluoro-1H-indazol-5-yl)-2-phenylvinyl)phenoxy)ethyl)amino)-N,N-dimethylbut-2-enamide 2,2,2-trifluoro acetate]
1.84 ± 1.09 nM	25.5 ± 13.8 nM	CC/C(=C(/c1ccc(OCCNC/C=C/C(=O)N2CCOCC2)cc1)c1ccc2[nH]ncc2c1)c1ccccc1 [Compound 15, (E)-4-((2-(4-((E)-1-(1H-indazol-5-yl)-2-phenylbut-1-en-1-yl)phenoxy)ethyl)amino)-1-morpholinobut-2-en-1-one]
1.66 nM	21.9 nM	CC/C(=C(/c1ccc(OCCNC/C=C/C(=O)N(C)CC)cc1)c1ccc2[nH]ncc2c1)c1ccccc1 [Compound 16, (E)-4-((2-(4-((E)-1-(1H-indazol-5-yl)-2-phenylbut-1-en-1-yl)phenoxy)ethyl)amino)-N-ethyl-N-methylbut-2-enamide]
2.18 nM	25.2 nM	CCCN(C)C(=O)/C=C/CNCCOc1ccc(/C(=C(/CC)c2ccccc2)c2ccc3[nH]ncc3c2)cc1 [Compound 17, (E)-4-((2-(4-((E)-1-(1H-indazol-5-yl)-2-phenylbut-1-en-1-yl)phenoxy)ethyl)amino)-N-methyl-N-propylbut-2-enamide]
1.63 ± 1.41 nM	21.4 ± 15 nM	CC/C(=C(/c1ccc(OCCNC/C=C/C(=O)N(C)CCO)cc1)c1ccc2[nH]ncc2c1)c1ccccc1 [Compound 18, (E)-4-((2-(4-((E)-1-(1H-indazol-5-yl)-2-phenylbut-1-en-1-yl)phenoxy)ethyl)amino)-N-(2-hydroxyethyl)-N-methylbut-2-enamide]
1.58 nM	18.6 nM	CC/C(=C(/c1ccc(OCCNC/C=C/C(=O)N(C)C)cc1)c1ccc2[nH]nc(F)c2c1)c1ccc(F)cc1Cl [Compound 19, (E)-4-((2-(4-((E)-2-(2-chloro-4-fluorophenyl)-1-(3-fluoro-1H-indazol-5-yl)but-1-en-1-yl)phenoxy)ethyl)amino)-N,N-dimethylbut-2-enamide]
26.6 ± 21.8 nM	154 ± 51.7 nM	CC/C(=C(/c1ccc(OCCNC/C(C)=C/C(=O)N(C)C)cc1)c1ccc2[nH]ncc2c1)c1ccccc1 [Compound 21, (E)-4-((2-(4-((E)-1-(1H-indazol-5-yl)-2-phenylbut-1-en-1-yl)phenoxy)ethyl)amino)-N,N,3-trimethylbut-2-enamide]
2.42 ± 1.95 nM	21.6 ± 0.26 nM	CC/C(=C(/c1ccc(OCCNC/C=C\C(=O)N(C)C)cc1)c1ccc2[nH]ncc2c1)c1ccccc1 [Compound 22, (Z)-4-((2-(4-((E)-1-(1H-indazol-5-yl)-2-phenylbut-1-en-1-yl)phenoxy)ethyl)amino)-N,N-dimethylbut-2-enamide]
1.52 ± 1.05 nM	24.2 ± 6.57 nM	O=C(/C=C/CNCCOc1ccc(/C(=C(\c2ccccc2)C2CCC2)c2ccc3[nH]ncc3c2)cc1)N1CCOCC1 [Compound 23, (E)-4-((2-(4-((E)-2-cyclobutyl-1-(1H-indazol-5-yl)-2-phenylvinyl)phenoxy)ethyl)amino)-1-morpholinobut-2-en-1-one]
1.05 ± 0.3 nM	19.9 ± 3.58 nM	CN(C)C(=O)/C=C/CNCCOc1ccc(/C(=C(\c2ccccc2)C2CCC2)c2ccc3[nH]ncc3c2F)cc1 [Compound 24, (E)-4-((2-(4-((E)-2-cyclobutyl-1-(4-fluoro-1H-indazol-5-yl)-2-phenylvinyl)phenoxy)ethyl)amino)-N,N-dimethylbut-2-enamide]
1.15 ± 0.3 nM	19.6 ± 4.26 nM	CC/C(=C(/c1ccc(OCCNC/C=C/C(=O)N(C)C)nc1)c1ccc2[nH]ncc2c1)c1ccccc1 [Compound 25, (E)-4-((2-((5-((Z)-1-(1H-indazol-5-yl)-2-phenylbut-1-en-1-yl)pyridin-2-yl)oxy)ethyl)amino)-N,N-dimethylbut-2-enamide]
2.18 ± 0.87 nM	32.5 ± 16.7 nM	CC/C(=C(/c1ccc(OCCNC/C=C/C(=O)N(C)CCO)cc1)c1ccc2[nH]ncc2c1)c1ccccc1C [Compound 26, (E)-4-((2-(4-((E)-1-(1H-indazol-5-yl)-2-(o-tolyl)but-1-en-1-yl)phenoxy)ethyl)amino)-N-(2-hydroxyethyl)-N-methylbut-2-enamide]
3.16 nM	69.7 nM	CC/C(=C(/c1ccc(OCCNC/C=C/C(=O)N(C)CCO)cc1)c1ccc2[nH]nc(F)c2c1)c1ccc(F)cc1Cl [Compound 28, (E)-4-((2-(4-((E)-2-(2-chloro-4-fluorophenyl)-1-(3-fluoro-1H-indazol-5-yl)but-1-en-1-yl)phenoxy)ethyl)amino)-N-(2-hydroxyethyl)-N-methylbut-2-enamide]
3.37 nM	58.7 nM	CC/C(=C(/c1ccc(OCCNC/C=C/C(=O)N(C)C)cc1)c1ccc2[nH]ncc2c1)c1ccc(C(C)C)cc1 [Compound 29, (E)-4-((2-(4-((E)-1-(1H-indazol-5-yl)-2-(4-isopropylphenyl)but-1-en-1-yl)phenoxy)ethyl)amino)-N,N-dimethylbut-2-enamide]
2.74 ± 1.06 nM	61.3 ± 9.98 nM	CN(C)C(=O)/C=C/CNCCOc1ccc(/C(=C(/CCCl)c2ccccc2)c2ccc3[nH]ncc3c2)cc1 [Compound 30, (E)-4-((2-(4-((E)-4-chloro-1-(1H-indazol-5-yl)-2-phenylbut-1-en-1-yl)phenoxy)ethyl)amino)-N,N-dimethylbut-2-enamide]
0.83 nM	13.1 nM	CC/C(=C(/c1ccc(OCCNC/C=C/C(=O)N(C)C)cc1)c1ccc2[nH]ncc2c1)c1ccccc1OC [Compound 31]
1.28 nM	22.9 nM	CC/C(=C(/c1ccc(OCCNC/C=C/C(=O)N(C)C)cc1)c1ccc2[nH]ncc2c1)c1ccccc1OC(F)F [Compound 32, (E)-4-((2-(4-((E)-2-(2-(difluoromethoxy)phenyl)-1-(1H-indazol-5-yl)but-1-en-1-yl)phenoxy)ethyl)amino)-N,N-dimethylbut-2-enamide]
2.5 nM	29.3 nM	CC/C(=C(/c1ccc(OCCNC/C=C/C(=O)N(C)C)cc1)c1ccc2[nH]ncc2c1)c1ccccc1OC(F)(F)F [Compound 33, (E)-4-((2-(4-((E)-1-(1H-indazol-5-yl)-2-(2-(trifluoro-methoxy)phenyl)but-1-en-1-yl)phenoxy)ethyl)amino)-N,N-dimethylbut-2-enamide]
10.5 nM	93.6 nM	CC/C(=C(/c1ccc(OCCNC/C=C/C(=O)N(C)C)cc1)c1ccc2[nH]ncc2c1)c1ccccc1C(C)C [Compound 34, (E)-4-((2-(4-((E)-1-(1H-indazol-5-yl)-2-(2-isopropylphenyl)but-1-en-1-yl)phenoxy)ethyl)amino)-N,N-dimethylbut-2-enamide]
6.22 ± 0.58 nM	47.8 ± 15.6 nM	CC/C(=C(/c1ccc(OCCNC/C=C/C(=O)N(C)C)cc1)c1ccc2[nH]ncc2c1)c1ccccc1CC [Compound 35, (E)-4-((2-(4-((E)-2-(2-ethylphenyl)-1-(1H-indazol-5-yl)but-1-en-1-yl)phenoxy)ethyl)amino)-N,N-dimethylbut-2-enamide]
